In US9938261B2, “Heterocyclic compounds and methods of use thereof” (AMBIT BIOSCIENCES CORPORATION, priority 2011, dated 2018) one finds Kd and IC50 data, which are given here for 9 compounds.

Assay [1] has as its target T1, PDGFRβ (Homo sapiens, UniProt P09619).
T1 construct: made in house
The experiment in a line: Competition binding assay, PDGFRβ Kd. How it is done: (§1) Competition binding assays used herein were developed, validated and performed as described in Fabian et al., Nature Biotechnology 2005, 23, 329-336. Kinases were produced as fusions to T7 phage (See, Fabian et al. or WO04/015142) or alternatively, the kinases were expressed in HEK-293 cells and subsequently tagged with DNA for PCR detection (See, WO08/005310). For the binding assays, streptavidin-coated magnetic beads were treated with biotinylated affinity ligands for 30 min at room temperature to generate affinity resins. The liganded beads were blocked with excess biotin and washed with blocking buffer (SeaBlock (Pierce), 1% BSA, 0.05% Tween 20, 1 mM DTT) to remove unbound ligand and to reduce non-specific binding. Binding reactions were assembled by combining kinase, liganded affinity beads, and test compounds in 1× binding buffer (20% SeaBlock, 0.17×PBS, 0.05% Tween 20, 6 mM DTT). Test compounds were prepared as 100× stocks in DMSO and diluted into the aqueous environment. Kds were determined using an eleven point threefold serial dilutions. DMSO or control compounds were was added to control assays lacking a test compound. Primary screen assays were performed in polypropylene 384-well plates in a final volume of 20-40 μL, while Kd determinations were performed in polystyrene 96-well plates in a final volume of 135 μL. The assay plates were incubated at room temperature with shaking for 1 hour to allow the binding reactions to reach equilibrium, and the affinity beads were washed extensively with wash buffer (1×PBS, 0.05% Tween 20) to remove unbound protein. The beads were then resuspended in elution buffer (1×PBS, 0.05% Tween […] non-biotinylated affinity ligand) and incubated at room temperature with shaking for 30 min. The kinase concentration in the eluates was measured by quantitative PCR.

Assay [2] has as its target T2, CSF1R (Homo sapiens, UniProt P07333). The experiment in a line: Competition binding assay, CSF1R Kd. More on the design: made in house. How it is done:
as §1

Assay [3] has as its target T3, FLT3 (Homo sapiens, UniProt P36888).
T3 construct: made in house
T3 sequence (P36888 27-993): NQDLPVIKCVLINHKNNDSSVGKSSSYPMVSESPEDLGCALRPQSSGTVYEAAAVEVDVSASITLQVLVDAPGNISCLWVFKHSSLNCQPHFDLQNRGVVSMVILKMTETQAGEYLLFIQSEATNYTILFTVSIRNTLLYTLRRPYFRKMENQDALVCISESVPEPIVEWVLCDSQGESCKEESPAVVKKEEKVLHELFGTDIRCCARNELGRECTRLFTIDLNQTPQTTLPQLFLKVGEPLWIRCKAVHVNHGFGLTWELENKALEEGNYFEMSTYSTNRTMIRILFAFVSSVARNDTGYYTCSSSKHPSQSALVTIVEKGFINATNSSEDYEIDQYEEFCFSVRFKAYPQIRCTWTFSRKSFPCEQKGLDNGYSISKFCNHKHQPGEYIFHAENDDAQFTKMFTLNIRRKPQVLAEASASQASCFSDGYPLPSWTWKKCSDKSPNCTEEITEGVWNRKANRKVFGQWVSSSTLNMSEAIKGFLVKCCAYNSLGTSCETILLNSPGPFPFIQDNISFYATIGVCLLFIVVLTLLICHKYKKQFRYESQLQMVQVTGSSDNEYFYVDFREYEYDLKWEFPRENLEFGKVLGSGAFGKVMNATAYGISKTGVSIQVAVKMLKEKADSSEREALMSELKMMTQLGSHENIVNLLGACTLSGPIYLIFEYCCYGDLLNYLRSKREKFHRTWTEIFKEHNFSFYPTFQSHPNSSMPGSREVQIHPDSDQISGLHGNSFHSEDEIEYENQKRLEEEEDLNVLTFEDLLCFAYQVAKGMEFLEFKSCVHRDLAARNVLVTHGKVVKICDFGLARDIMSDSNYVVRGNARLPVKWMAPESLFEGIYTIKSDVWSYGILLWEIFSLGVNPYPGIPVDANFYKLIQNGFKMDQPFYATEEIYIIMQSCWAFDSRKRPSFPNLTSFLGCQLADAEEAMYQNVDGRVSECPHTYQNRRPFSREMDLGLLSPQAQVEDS
The experiment in a line: Competition binding assay, FLT3 Kd. How it is done:
as §1

In assay [4] the test system is M-NFS-60 cells. Description: M-NFS-60 cell proliferation assay (Alamar Blue). It is filed as cell-based, mouse. Conditions: Mus musculus; 72 hours incubation, M-CSF 20 ng/mL; read-out: CSF1R M-NFS-60 CTB:IC50. How it is done:
The compounds disclosed herein were tested in an M-NFS-60 cell proliferation assay to determine their cellular potency against CSF1R. M-NFS-60s are mouse monocytic cells that depend on the binding of the ligand M-CSF to its receptor, CSF1R, to proliferate. Inhibition of CSF1R kinase activity will cause reduced growth and/or cell death. This assay assesses the potency of compounds as CSF1R inhibitors by measuring the reduction of Alamar Blue reagent by viable cells.
On day one of the experiment, M-NFS-60 cells were maintained in RPMI complete medium (Omega Scientific) plus 10% FBS supplemented with 20 ng/mL of M-CSF (R&D Systems). 96-well TC-treated, flat bottom plates were seeded at 10,000 cell/well at a volume of 100 μL per well. The cells were cultured overnight at 37° C. under 5% CO2.
On day two, compounds were added to the cells at 9 different concentrations, with half-log intervals alongside a control reference compound serving as a positive control. Final DMSO concentration was kept at 0.5% for a final volume of 200 μL. The compounds were allowed to incubate with the cells for 72 hours at 37° C. under 5% CO2.
On day five of the experiment, 40 μl of Alamar Blue reagent was added to each well and allowed to incubate for 3 hours. Alamar Blue fluorescence was read using SoftMax Pro software at 560 nm (excitation) and 590 nm (emission). IC50s were generated as an average of duplicates and represents the concentration of test compound that achieves 50% inhibition of cellular proliferation compared to control.

The target in assay [5] is T2, CSF1R. The experiment in a line: HEK293 CSF1R phosphorylation MSD assay. The assay is classed as cell-based. Also on record: expressed in transfected cells; host or cells: HEK293. To be noted: 2 h compound, human M-CSF 50 ng/mL for 5 min; read-out: HEK293 pCSF1R M-CSF MSD:IC50. Here is the method: The compounds disclosed herein were tested in a CSF1R phosphorylation assay to determine their cellular potency against CSF1R. A HEK293 cell line expressing CSF1R fused to FK506 binding protein (FKBP) as a molecular tag was generated. Inhibition of CSF1R kinase activity will prevent ligand-stimulated autophosphorylation of the CSF1R-FKBP in intact cells. Subsequent cell lysates are assayed in a sandwich ELISA employing the electrochemiluminescent Meso Scale Discovery (MSD) technology for the presence of the phosphorylated (p)CSF1R-FKBP. This assay determines the potency of compounds as CSF1R inhibitors by measuring the reduction in the amount of pCSF1R with increasing doses of compounds added to the cells prior to M-CSF stimulation.
On day one of the experiment, HEK293-CSF1R-FKPB cells, maintained in DMEM, with L-glutamine (Mediatech), 10% FBS, and 100 units/mL Penicillin/Streptomycin, were seeded at 50,000 cell/well in a volume of 100 μL per well in 96-well Cell Bind plates (Costar). The cells were cultured overnight at 37° C. under 5% CO2. To prepare the plates used in the MSD assay, a 330 nM biotin-FK506 (in TBS pH 7.2) solution was added at 30 μL per well to streptavidin-coated 96-well plates (MSD), and incubated overnight at room temperature, shaking at 500 rpm on an orbital shaker.
On day two, compounds diluted in DMSO were added to the cells in duplicate plates at 9 different concentrations with half-log intervals, plus DMSO only control, alongside a reference compound serving as a positive control. Final DMSO concentration was 0.5% in a volume of 200 μL per well. The compounds were allowed to incubate with the cells for 2 h at 37° C. under 5% CO2. At the end of the incubation, human M-CSF (R&D Systems) was added for 5 min to a final concentration of 50 ng/mL to stimulate CSF1R phosphorylation. Cells were lysed for 20 min, and the lysates were applied to the washed, FK506-coated MSD plates, and incubated overnight at 4° C. shaking at 500 rpm.
On day three, the MSD plates were washed, and the captured CSF1R-FKBP was assayed sequentially for phosphorylation using mouse anti-phosphotyrosine antibody (Millipore) and Sulfo-TAG goat anti-mouse IgG antibody (MSD), and detected on a Sector Imager 6000 instrument (MSD).
A single IC50 value for each compound was determined by averaging the IC50s of the duplicates calculated using Igor Pro 6 software, and represents the compound concentration that achieves a 50% inhibition of ligand-induced CSF1R phosphorylation compared to DMSO control.

Assay [6] deals with T4, KIT (Homo sapiens, UniProt P10721).
T4 construct: made in house
Description: Competition binding assay, KIT Kd. How it is done: as §1

T1 sequence (P09619 33-1106): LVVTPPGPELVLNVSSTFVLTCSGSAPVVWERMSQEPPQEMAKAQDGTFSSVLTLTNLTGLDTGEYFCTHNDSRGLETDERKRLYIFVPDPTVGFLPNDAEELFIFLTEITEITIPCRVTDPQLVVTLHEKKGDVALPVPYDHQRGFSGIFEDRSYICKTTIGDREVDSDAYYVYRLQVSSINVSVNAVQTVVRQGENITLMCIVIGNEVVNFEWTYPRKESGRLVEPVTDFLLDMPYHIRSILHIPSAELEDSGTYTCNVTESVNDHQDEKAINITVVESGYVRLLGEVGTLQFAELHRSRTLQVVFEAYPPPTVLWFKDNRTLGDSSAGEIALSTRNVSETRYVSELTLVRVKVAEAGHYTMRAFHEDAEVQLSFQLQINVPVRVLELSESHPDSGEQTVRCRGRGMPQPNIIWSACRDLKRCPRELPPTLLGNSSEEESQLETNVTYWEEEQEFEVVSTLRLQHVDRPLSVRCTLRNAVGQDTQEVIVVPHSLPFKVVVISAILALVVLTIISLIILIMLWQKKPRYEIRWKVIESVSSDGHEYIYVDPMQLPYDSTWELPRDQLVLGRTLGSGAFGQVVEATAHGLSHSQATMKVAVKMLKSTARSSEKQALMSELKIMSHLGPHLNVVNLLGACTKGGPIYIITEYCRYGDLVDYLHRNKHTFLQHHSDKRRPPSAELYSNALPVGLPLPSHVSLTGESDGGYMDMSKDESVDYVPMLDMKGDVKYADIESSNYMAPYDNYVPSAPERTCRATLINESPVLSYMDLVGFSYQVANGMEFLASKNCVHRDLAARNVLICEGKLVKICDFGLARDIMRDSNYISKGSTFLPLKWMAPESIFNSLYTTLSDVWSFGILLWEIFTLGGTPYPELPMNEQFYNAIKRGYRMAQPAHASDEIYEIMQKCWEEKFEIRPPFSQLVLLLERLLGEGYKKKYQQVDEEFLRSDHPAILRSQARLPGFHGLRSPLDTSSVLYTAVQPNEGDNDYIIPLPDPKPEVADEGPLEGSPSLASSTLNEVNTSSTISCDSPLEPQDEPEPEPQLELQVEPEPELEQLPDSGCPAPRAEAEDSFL
T2 sequence (P07333 20-972): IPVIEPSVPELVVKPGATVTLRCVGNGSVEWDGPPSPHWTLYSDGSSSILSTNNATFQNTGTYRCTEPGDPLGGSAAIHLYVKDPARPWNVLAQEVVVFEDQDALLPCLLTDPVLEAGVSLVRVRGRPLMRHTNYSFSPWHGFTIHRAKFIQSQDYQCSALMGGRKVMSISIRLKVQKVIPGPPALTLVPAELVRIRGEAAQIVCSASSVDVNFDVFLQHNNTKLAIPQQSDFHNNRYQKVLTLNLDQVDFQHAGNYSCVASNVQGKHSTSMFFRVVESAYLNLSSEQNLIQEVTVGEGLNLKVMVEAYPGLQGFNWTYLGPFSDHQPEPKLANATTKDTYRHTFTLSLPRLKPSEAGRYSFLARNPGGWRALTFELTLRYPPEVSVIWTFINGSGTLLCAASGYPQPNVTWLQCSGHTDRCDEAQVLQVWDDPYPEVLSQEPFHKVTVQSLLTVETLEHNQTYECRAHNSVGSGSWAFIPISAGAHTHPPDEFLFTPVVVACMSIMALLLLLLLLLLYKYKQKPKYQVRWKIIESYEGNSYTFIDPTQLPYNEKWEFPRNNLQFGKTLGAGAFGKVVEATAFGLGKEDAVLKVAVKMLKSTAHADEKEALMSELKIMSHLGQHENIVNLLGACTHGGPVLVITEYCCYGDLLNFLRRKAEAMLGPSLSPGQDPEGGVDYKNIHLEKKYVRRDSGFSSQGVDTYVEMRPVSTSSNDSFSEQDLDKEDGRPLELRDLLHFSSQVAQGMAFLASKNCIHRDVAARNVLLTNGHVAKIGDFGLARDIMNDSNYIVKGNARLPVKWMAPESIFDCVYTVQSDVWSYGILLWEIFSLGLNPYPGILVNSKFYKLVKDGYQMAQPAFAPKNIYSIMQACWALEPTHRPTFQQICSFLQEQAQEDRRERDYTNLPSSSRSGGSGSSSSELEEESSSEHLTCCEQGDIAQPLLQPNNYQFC
T4 sequence (P10721 26-976): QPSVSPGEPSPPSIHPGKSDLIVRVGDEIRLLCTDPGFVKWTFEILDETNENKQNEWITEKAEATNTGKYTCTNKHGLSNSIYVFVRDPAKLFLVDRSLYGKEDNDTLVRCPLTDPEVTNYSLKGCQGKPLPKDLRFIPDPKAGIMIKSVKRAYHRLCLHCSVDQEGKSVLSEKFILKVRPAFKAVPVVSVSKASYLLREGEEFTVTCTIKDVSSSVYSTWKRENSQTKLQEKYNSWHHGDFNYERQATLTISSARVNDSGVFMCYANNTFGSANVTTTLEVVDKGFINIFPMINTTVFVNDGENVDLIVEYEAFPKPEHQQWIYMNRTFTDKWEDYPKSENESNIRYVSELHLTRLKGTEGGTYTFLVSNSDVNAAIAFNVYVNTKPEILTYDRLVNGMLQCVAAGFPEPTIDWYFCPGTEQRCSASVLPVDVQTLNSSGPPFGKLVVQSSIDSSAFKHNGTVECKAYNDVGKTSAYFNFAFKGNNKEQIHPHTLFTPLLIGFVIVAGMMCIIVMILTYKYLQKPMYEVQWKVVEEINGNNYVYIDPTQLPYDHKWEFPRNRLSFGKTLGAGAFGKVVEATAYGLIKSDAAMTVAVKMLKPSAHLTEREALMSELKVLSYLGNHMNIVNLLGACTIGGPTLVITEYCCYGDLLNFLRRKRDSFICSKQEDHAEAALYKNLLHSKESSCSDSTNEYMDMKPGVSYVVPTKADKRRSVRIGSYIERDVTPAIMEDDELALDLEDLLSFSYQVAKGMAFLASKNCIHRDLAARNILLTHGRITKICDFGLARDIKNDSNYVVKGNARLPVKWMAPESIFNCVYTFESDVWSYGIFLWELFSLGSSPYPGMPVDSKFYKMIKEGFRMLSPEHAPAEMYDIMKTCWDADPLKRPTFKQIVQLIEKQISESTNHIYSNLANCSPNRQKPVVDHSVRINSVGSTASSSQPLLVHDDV

Take `O[C@@H]1CCCC[C@H]1Nc1nc2ccc(Cc3c[nH]c4ncccc34)cc2s1` [Example 17, (1R,2R)-2-((6-((1H-pyrrolo[2,3-b]pyridin-3-yl)methyl)benzo[d]thiazol-2-yl)amino)cyclohexanol]: the dissociation constant Kd in assay [1] was 50 to 500 nM; in assay [2], 5 to 20 nM; in assay [3], 200 to 1000 nM; in assay [6] it was greater than 2000 nM. The 50% inhibitory concentration (IC50) is 400 to 1500 nM in assay [4] and 200 to 500 nM in assay [5].
Consider `COc1cc2ncn(Cc3ccc4nc(NC5CCCCC5)sc4c3)c2cc1OC` [Example 18, N-cyclohexyl-6-((5,6-dimethoxy-1H-benzo[d]imidazol-1-yl)methyl)benzo[d]thiazol-2-amine], for which the dissociation constant Kd in assay [1] was no more than 50 nM; in assay [2], no more than 5 nM; in assay [3] it was no more than 200 nM; in assay [6] it was no more than 100 nM. Further, the results for the 50% inhibitory concentration (IC50) in assay [4] and in assay [5] were 50 to 400 nM and no more than 50 nM, respectively.
On to `COc1cc2ncn(Cc3ccc4nc(N[C@@H]5c6ccccc6C[C@H]5O)sc4c3)c2cc1OC` [Example 19, (1R,2R)-1-((6-((5,6-dimethoxy-1H-benzo[d]imidazol-1-yl)methyl)benzo[d]thiazol-2-yl)amino)-2,3-dihydro-1H-inden-2-ol], for which the equilibrium dissociation constant (Kd) was 50 to 500 nM in assay [1], no more than 5 nM in assay [2], 1000 to 5000 nM in assay [3] and 100 to 500 nM in assay [6]. Further, the IC50 in assay [4] fell in the range of 50 to 400 nM; in assay [5], 50 to 200 nM.
As for `COc1cc2ncn(Cc3ccc4nc(NCc5ccncc5)sc4c3)c2cc1OC` [Example 21, 6-((5,6-dimethoxy-1H-benzo[d]imidazol-1-yl)methyl)-N-(pyridin-4-ylmethyl)benzo[d]thiazol-2-amine], the Kd in assay [1] is greater than 2000 nM; in assay [2], greater than 50 nM; in assay [3] it was greater than 5000 nM; in assay [6], greater than 2000 nM. Moreover, the IC50 in assay [4] was greater than 1500 nM; in assay [5], 200 to 500 nM.
For `COc1cc2ncn(Cc3ccc4nc(Nc5ccccc5)sc4c3)c2cc1OC` [Example 22, 6-((5,6-dimethoxy-1H-benzo[d]imidazol-1-yl)methyl)-N-phenylbenzo[d]thiazol-2-amine], the Kd in assay [1] was greater than 2000 nM; in assay [2], 5 to 20 nM; in assay [3] it was 1000 to 5000 nM; in assay [6], 100 to 500 nM. For the same compound, the half-maximal inhibitory concentration (IC50) in assay [4] was 400 to 1500 nM; in assay [5] it was 50 to 200 nM.
Regarding `COc1ccc2ncn(Cc3ccc4nc(N[C@@H]5CCCC[C@H]5O)sc4c3)c2n1` [Example 23, (1R,2R)-2-((6-((5-methoxy-3H-imidazo[4,5-b]pyridin-3-yl)methyl)benzo[d]thiazol-2-yl)amino)cyclohexanol], the Kd was 50 to 500 nM in assay [1], no more than 5 nM in assay [2], no more than 200 nM in assay [3] and no more than 100 nM in assay [6]. The IC50 is 50 to 400 nM in assay [4] and no more than 50 nM in assay [5].
As for `COc1cc2ncn(Cc3ccc4nc(NC5CCN(C(C)=O)CC5)sc4c3)c2cc1OC` [Example 24, 1-(4-((6-((5,6-dimethoxy-1H-benzo[d]imidazol-1-yl)methyl)benzo[d]thiazol-2-yl)amino)piperidin-1-yl)ethanone acetic acid], the Kd is greater than 2000 nM in assay [1], greater than 50 nM in assay [2], greater than 5000 nM in assay [3] and greater than 2000 nM in assay [6]. The concentration for half-maximal inhibition (IC50) was greater than 1500 nM in assay [4] and greater than 500 nM in assay [5].
`Nc1nc2cccnc2n1Cc1ccc2nc(N[C@@H]3CCCC[C@H]3O)sc2c1` [Example 26, 3-((2-(((1R,2R)-2-hydroxycyclohexyl)amino)benzo[d]thiazol-6-yl)methyl)-3H-imidazo[4,5-b]pyridin-2-aminium acetic acid]: the Kd in assay [1] is greater than 2000 nM; in assay [2], 5 to 20 nM; in assay [3], 200 to 1000 nM; in assay [6] it was greater than 2000 nM. The results for the 50% inhibitory concentration (IC50) in assay [4] and in assay [5] were greater than 1500 nM and greater than 500 nM, respectively.
As to `CCOc1ccccc1Nc1nc2ccc(Cn3cnc4cc(OC)c(OC)cc43)cc2s1` [Example 27, 6-((5,6-dimethoxy-1H-benzo[d]imidazol-1-yl)methyl)-N-(2-ethoxyphenyl)benzo[d]thiazol-2-amine], the Kd in assay [1] lay in the range of 50 to 500 nM; in assay [2], 5 to 20 nM; in assay [3], 1000 to 5000 nM; in assay [6], 100 to 500 nM. In addition, the values for the IC50 in assay [4] and in assay [5] were 50 to 400 nM and 50 to 200 nM, respectively.
